In US20260042755A1, “GPR6 INVERSE AGONISTS” (MapLight Therapeutics, Inc., priority 2022, published 2026):

Experiments:
GPR3 = target: T1, GPR3 (Homo sapiens, UniProt P46089); experiment: GPR3 antagonist functional cAMP assay (LANCE Ultra cAMP TR-FRET, CHO cells stably expressing GPR3); format: cell-based
T1 construct: expressed in transfected cells; host or cells: CHO cells
Method in brief: (§1)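 10,000 cells/well; KRB buffer + 0.1% BSA + 150 μM Ro 20-1724; cpd 45 min, 37 °C, 0.1% DMSO; TR-FRET cAMP, 665 nm; 4-PL fit, normalized to DMSO (0.1%) and reference (100%) → IC50.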

GPR6 = target: T2, GPR6 (Homo sapiens, UniProt P46095); experiment: GPR6 antagonist functional cAMP assay (LANCE Ultra cAMP TR-FRET, CHO cells stably expressing GPR6); format: cell-based
T2 construct: expressed in transfected cells; host or cells: CHO cells
T2 sequence (P46095 whole entry): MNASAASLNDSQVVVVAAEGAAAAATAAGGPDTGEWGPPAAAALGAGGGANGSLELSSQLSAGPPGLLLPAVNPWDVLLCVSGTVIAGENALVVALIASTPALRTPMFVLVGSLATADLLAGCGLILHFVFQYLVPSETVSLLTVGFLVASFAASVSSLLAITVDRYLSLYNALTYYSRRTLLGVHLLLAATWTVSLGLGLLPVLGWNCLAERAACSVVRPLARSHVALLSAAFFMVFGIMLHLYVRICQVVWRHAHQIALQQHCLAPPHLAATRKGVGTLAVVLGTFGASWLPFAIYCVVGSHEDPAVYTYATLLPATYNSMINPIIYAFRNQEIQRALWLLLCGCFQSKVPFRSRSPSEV
Method in brief: as §1

[1] = CHO cells stably expressing GPR3, cAMP assay (Example 24)
[2] = CHO cells stably expressing GPR6, cAMP assay (Example 24)
[3] = CHO cells stably expressing GPR3, cAMP assay
[4] = CHO cells stably expressing GPR6, cAMP assay
[5] = procedure as described in Example 24

T1 sequence (P46089 whole entry, species assumed): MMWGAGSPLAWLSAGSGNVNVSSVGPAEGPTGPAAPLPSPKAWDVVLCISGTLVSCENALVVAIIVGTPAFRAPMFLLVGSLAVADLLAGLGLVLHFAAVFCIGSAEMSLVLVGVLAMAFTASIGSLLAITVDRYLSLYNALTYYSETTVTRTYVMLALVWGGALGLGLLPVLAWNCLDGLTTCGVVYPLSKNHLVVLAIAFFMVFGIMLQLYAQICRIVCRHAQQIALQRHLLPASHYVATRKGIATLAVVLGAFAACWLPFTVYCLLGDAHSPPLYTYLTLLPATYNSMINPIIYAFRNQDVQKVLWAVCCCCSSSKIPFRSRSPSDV

SMILES	IC50 (GPR3; procedure of Example 24) [nM]	IC50 (GPR6; procedure of Example 24) [nM]	IC50 (GPR3; [1]) [nM]	IC50 (GPR6; [2]) [nM]	also measured
CC(C)(O)Cc1cc2nc(-c3cnn(C(F)F)c3)c(N3CCC(Oc4ccc(F)cc4F)CC3)nc2cn1 [Compound 714, 1-{2-[1-(difluoromethyl)-4-pyrazolyl]-3-[4-(2,4-difluorophenoxy)-1-piperidyl]-1,4,6-triaza-7-naphthyl}-2-methyl-2-propanol]	1000 to 30000	100 to 1000	–	–	–
CC(=O)N1CCc2nc(N3CCN(Cc4ccc(F)cc4F)C[C@H]3C)c(-c3cnn(C)c3)nc2C1 (single isomer, unassigned) [Compound 231]	–	–	1000 to 30000	1000 to 30000	–
CC(=O)N1CCc2nc(N3CCN(Cc4cccc(=O)[nH]4)CC3)c(-c3cnn(C)c3)nc2C1 [Compound 530, 6-({4-[6-acetyl-3-(1-methyl-4-pyrazolyl)-5,6,7,8-tetrahydro-1,4,6-triaza-2-naphthyl]-1-piperazinyl}methyl)-2(1H)-pyridinone]	–	–	–	–	IC50 (GPR3; [3]): ≥ 30000 nM; IC50 (GPR6; [4]): ≥ 30000 nM
CC(=O)N1CCc2nc(N3CCN(Cc4cccc(F)c4F)CC3)c(-c3cnn(C)c3)nc2C1 [Compound 320, 1-(2-{4-[(2,3-difluorophenyl)methyl]piperazin-1-yl}-3-(1-methyl-1H-pyrazol-4-yl)-5H,6H,7H,8H-pyrido[3,4-b]pyrazin-6-yl)ethan-1-one]	1000 to 30000	1000 to 30000	–	–	–
C[C@H]1CN(Cc2ccc(F)cc2F)CCN1c1nc2ccncc2nc1-c1cnn(C)c1 (single isomer, unassigned) [Compound 225]	–	–	1000 to 30000	100 to 1000	–
CC(=O)Nc1cc2nc(N3CCN(Cc4ccc(F)cc4F)CC3)c(-c3cnn(C)c3)nc2cn1 [Compound 297, N-(2-{4-[(2,4-difluorophenyl)methyl]piperazin-1-yl}-3-(1-methyl-1H-pyrazol-4-yl)pyrido[3,4-b]pyrazin-7-yl)acetamide]	1000 to 30000	1000 to 30000	–	–	–
CC(=O)N1CCc2nc(N3CCC(Oc4ccc(F)cc4F)CC3)c(C3=CCOC3)nc2C1 [Compound 306, 1-{2-[4-(2,4-difluorophenoxy)piperidin-1-yl]-3-(2,5-dihydrofuran-3-yl)-5H,6H,7H,8H-pyrido[3,4-b]pyrazin-6-yl}ethan-1-one]	1000 to 30000	100 to 1000	–	–	–
COCCNc1cc2nc(-c3cnn(CF)c3)c(N3CCN(Cc4ccc(F)cc4F)CC3)nc2cn1 [Compound 762, (2-methoxyethyl)(3-{4-[(2,4-difluorophenyl)methyl]-1-piperazinyl}-2-[1-(fluoromethyl)-4-pyrazolyl]-1,4,6-triaza-7-naphthyl)amine]	1000 to 30000	1000 to 30000	–	–	–
CC(=O)N1CCc2nc(N3CCN(Cc4cccnc4)CC3)c(-c3cnn(C)c3)nc2C1 [Compound 517, 1-[3-(1-methyl-4-pyrazolyl)-2-{4-[(3-pyridyl)methyl]-1-piperazinyl}-5,6,7,8-tetrahydro-1,4,6-triaza-6-naphthyl]-1-ethanone]	–	–	–	–	IC50 (GPR3; [3]): ≥ 30000 nM; IC50 (GPR6; [4]): ≥ 30000 nM
CC(=O)N1CCc2nc(N3CCC(Cc4ccc(F)cc4F)CC3)c(-c3cnn(C)c3)nc2C1 [Compound 375, 1-(2-{4-[(2,4-difluorophenyl)methyl]piperidin-1-yl}-3-(1-methyl-1H-pyrazol-4-yl)-5H,6H,7H,8H-pyrido[3,4-b]pyrazin-6-yl)ethan-1-one]	100 to 1000	< 100	–	–	–
CC(=O)N1CCc2nc(N3CCN(Cc4ccc(F)cc4F)CC3)c(-c3cnn(C)c3)nc2C1 [Compound 352, 1-(2-{4-[(2,4-difluorophenyl)methyl]piperazin-1-yl}-3-(1-methyl-1H-pyrazol-4-yl)-5H,6H,7H,8H-pyrido[3,4-b]pyrazin-6-yl)ethan-1-one]	1000 to 30000	100 to 1000	–	–	–
CN(C)C(=O)N1CCc2nc(N3CCC(Oc4ccc(F)cc4F)CC3)c(-c3cnn(C4CCCCO4)c3)nc2C1 (stereo not shown) [Compound 182, 2-[4-(2,4-difluorophenoxy)piperidin-1-yl]-N,N-dimethyl-3-[1-(oxan-2-yl)-1H-pyrazol-4-yl]-5H,6H,7H,8H-pyrido[3,4-b]pyrazine-6-carboxamide]	–	–	1000 to 30000	100 to 1000	–
CCOC(=O)N1CCc2nc(N3CCC(Oc4ccc(F)cc4F)CC3)c(-c3cnn(CC)c3)nc2C1 [Compound 299, ethyl 2-[4-(2,4-difluorophenoxy)piperidin-1-yl]-3-(1-ethyl-1H-pyrazol-4-yl)-5H,6H,7H,8H-pyrido[3,4-b]pyrazine-6-carboxylate]	1000 to 30000	< 100	–	–	–
CCCn1cc(-c2nc3c(nc2N2CCC(Oc4ccc(F)cc4F)CC2)CCN(C(C)=O)C3)cn1 [Compound 312, 1-{2-[4-(2,4-difluorophenoxy)piperidin-1-yl]-3-(1-propyl-1H-pyrazol-4-yl)-5H,6H,7H,8H-pyrido[3,4-b]pyrazin-6-yl}ethan-1-one]	1000 to 30000	< 100	–	–	–
CC(=O)N1CCc2nc(N3CCC(Oc4ccc(F)cc4F)CC3)c(-c3cccc(OC(C)C)n3)nc2C1 [Compound 39, 1-{2-[4-(2,4-difluorophenoxy)piperidin-1-yl]-3-[6-(propan-2-yloxy)pyridin-2-yl]-5H,6H,7H,8H-pyrido[3,4-b]pyrazin-6-yl}ethan-1-one]	–	–	–	–	IC50 (GPR3; [5]): 100 to 1000 nM; IC50 (GPR6; [5]): 1000 to 30000 nM
CC(=O)N1CCc2nc(N3CCC(Oc4cc(Cl)ccc4Cl)CC3)c(-c3cnn(C)c3)nc2C1 [Compound 430, 1-{2-[4-(2,5-dichlorophenoxy)piperidin-1-yl]-3-(1-methyl-1H-pyrazol-4-yl)-5H,6H,7H,8H-pyrido[3,4-b]pyrazin-6-yl}ethan-1-one]	–	–	100 to 1000	< 100	–
CC(=O)N1CCc2nc(N3CCC(Oc4c(F)cccc4F)CC3)c(-c3cnn(C)c3)nc2C1 [Compound 454, 1-{2-[4-(2,6-difluorophenoxy)piperidin-1-yl]-3-(1-methyl-1H-pyrazol-4-yl)-5H,6H,7H,8H-pyrido[3,4-b]pyrazin-6-yl}ethan-1-one]	–	–	1000 to 30000	1000 to 30000	–
CC(C)(O)C(O)c1cc2nc(-c3cnn(CF)c3)c(N3CCC(Oc4ccc(F)cc4F)CC3)nc2cn1 (single isomer, unassigned) [Compound 593]	–	–	–	–	IC50 (GPR3; [3]): 100 to 1000 nM; IC50 (GPR6; [4]): < 100 nM
CC(C)(O)COc1cc2nc(-c3cnn(CF)c3)c(N3CCN(Cc4ccc(F)cc4F)CC3)nc2cn1 [Compound 798, 1-(3-{4-[(2,4-difluorophenyl)methyl]-1-piperazinyl}-2-[1-(fluoromethyl)-4-pyrazolyl]-1,4,6-triaza-7-naphthyloxy)-2-methyl-2-propanol]	1000 to 30000	100 to 1000	–	–	–
CC(=O)N1CCc2nc(N3CCC(C(=O)Nc4ccc(F)cc4F)C3)c(-c3cnn(C)c3)nc2C1 (stereo not shown) [Compound 365, 1-[6-acetyl-3-(1-methyl-1H-pyrazol-4-yl)-5H,6H,7H,8H-pyrido [3,4-b]pyrazin-2-yl]-N-(2,4-difluorophenyl)pyrrolidine-3-carboxamide]	≥ 30000	≥ 30000	–	–	–
COc1nccc(-c2nc3c(nc2N2CCC(Oc4ccc(F)cc4F)CC2)CCN(C(C)=O)C3)n1 [Compound 111, 1-{2-[4-(2,4-difluorophenoxy)piperidin-1-yl]-3-(2-methoxypyrimidin-4-yl)-5H,6H,7H,8H-pyrido[3,4-b]pyrazin-6-yl}ethan-1-one]	–	–	100 to 1000	100 to 1000	–
CC(=O)N1CCc2nc(N3CCC(C(C)c4ccc(F)cc4F)CC3)c(-c3cnn(C)c3)nc2C1 (stereo not shown) [Compound 790, 1-(2-{4-[1-(2,4-difluorophenyl)ethyl]-1-piperidyl}-3-(1-methyl-4-pyrazolyl)-5,6,7,8-tetrahydro-1,4,6-triaza-6-naphthyl)-1-ethanone]	1000 to 30000	100 to 1000	–	–	–
N#CN1CCc2nc(N3CCC(Oc4ccc(F)cc4F)CC3)c(-c3ccc(F)c(N)n3)nc2C1 [Compound 671, 6-{6-cyano-2-[4-(2,4-difluorophenoxy)-1-piperidyl]-5,6,7,8-tetrahydro-1,4,6-triaza-3-naphthyl}-3-fluoro-2-pyridylamine]	1000 to 30000	< 100	–	–	–
CC(C)(O)[C@H](O)c1cc2nc(N3CCC(Oc4ccc(F)cc4F)CC3)c(-c3cnn(CF)c3)nc2cn1 (single isomer, unassigned) [Compound 596]	–	–	–	–	IC50 (GPR3; [3]): 1000 to 30000 nM; IC50 (GPR6; [4]): 100 to 1000 nM
COc1cccc(-c2nc3c(nc2N2CCN(Cc4ccc(F)cc4Cl)CC2)CCN(C(C)=O)C3)n1 [Compound 205, 1-(2-{4-[(2-chloro-4-fluorophenyl)methyl]piperazin-1-yl}-3-(6-methoxypyridin-2-yl)-5H,6H,7H,8H-pyrido[3,4-b]pyrazin-6-yl)ethan-1-one]	–	–	1000 to 30000	100 to 1000	–
CO[C@H](CO)c1cc2nc(N3CCC(Oc4ccc(F)cc4F)CC3)c(-c3cnn(C)c3)nc2cn1 (single isomer, unassigned) [Compound 641]	1000 to 30000	100 to 1000	–	–	–
CC(=O)N1CCc2nc(N3CCC(=Cc4ccccc4F)CC3)c(-c3cnn(C)c3)nc2C1 [Compound 623, 1-(2-{4-[(o-fluorophenyl)methylene]-1-piperidyl}-3-(1-methyl-4-pyrazolyl)-5,6,7,8-tetrahydro-1,4,6-triaza-6-naphthyl)-1-ethanone]	100 to 1000	100 to 1000	–	–	–
CC(=O)N1CCc2nc(N3CCC(Oc4ccc(Cl)cc4Cl)CC3)c(-c3cnn(C)c3)nc2C1 [Compound 429, 1-{2-[4-(2,4-dichlorophenoxy)piperidin-1-yl]-3-(1-methyl-1H-pyrazol-4-yl)-5H,6H,7H,8H-pyrido[3,4-b]pyrazin-6-yl}ethan-1-one]	–	–	1000 to 30000	100 to 1000	–
CC(=O)N1CCc2nc(N3CCC(Oc4ccc(F)cc4F)CC3)c(-c3cnn(C(C)C#N)c3)nc2C1 (stereo not shown) [Compound 208, 2-(4-{6-acetyl-2-[4-(2,4-difluorophenoxy)piperidin-1-yl]-5H,6H,7H,8H-pyrido[3,4-b]pyrazin-3-yl}-1H-pyrazol-1-yl)propanenitrile]	–	–	1000 to 30000	100 to 1000	–
